Where a SMILES comes first, the peptide text is derived from it. Bridges are numbered along the chain shown (N, C = ends).

Assay type in all cases: functional, cell-based
In assay [1] the target is T1, Glucagon receptor (Homo sapiens, UniProt P47871). Briefly: Agonist activity at human GCG receptor expressed in HEK293 cells assessed as increase in cAMP level after 5 hrs by CRE driven luciferase reporter gene assay relative to glucagon. (Changes in cAMP serve as a functional read-out for many G protein-coupled receptors.)
T1 sequence (P47871 whole entry): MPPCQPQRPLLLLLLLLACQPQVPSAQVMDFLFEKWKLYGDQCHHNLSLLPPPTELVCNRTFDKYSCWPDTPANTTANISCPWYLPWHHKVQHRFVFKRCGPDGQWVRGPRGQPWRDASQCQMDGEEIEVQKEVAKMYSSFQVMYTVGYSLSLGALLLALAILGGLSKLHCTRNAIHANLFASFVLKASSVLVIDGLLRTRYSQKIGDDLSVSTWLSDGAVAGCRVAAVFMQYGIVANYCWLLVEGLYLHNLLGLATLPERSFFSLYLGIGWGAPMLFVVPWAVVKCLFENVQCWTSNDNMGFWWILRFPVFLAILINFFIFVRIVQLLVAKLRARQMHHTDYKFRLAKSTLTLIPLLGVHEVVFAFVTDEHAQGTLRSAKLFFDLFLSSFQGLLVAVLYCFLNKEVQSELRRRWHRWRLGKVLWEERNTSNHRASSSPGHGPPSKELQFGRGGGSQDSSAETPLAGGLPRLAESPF
The target in assay [2] is T2, Gastric inhibitory polypeptide receptor (Homo sapiens, UniProt P48546).
T2 sequence (P48546 whole entry): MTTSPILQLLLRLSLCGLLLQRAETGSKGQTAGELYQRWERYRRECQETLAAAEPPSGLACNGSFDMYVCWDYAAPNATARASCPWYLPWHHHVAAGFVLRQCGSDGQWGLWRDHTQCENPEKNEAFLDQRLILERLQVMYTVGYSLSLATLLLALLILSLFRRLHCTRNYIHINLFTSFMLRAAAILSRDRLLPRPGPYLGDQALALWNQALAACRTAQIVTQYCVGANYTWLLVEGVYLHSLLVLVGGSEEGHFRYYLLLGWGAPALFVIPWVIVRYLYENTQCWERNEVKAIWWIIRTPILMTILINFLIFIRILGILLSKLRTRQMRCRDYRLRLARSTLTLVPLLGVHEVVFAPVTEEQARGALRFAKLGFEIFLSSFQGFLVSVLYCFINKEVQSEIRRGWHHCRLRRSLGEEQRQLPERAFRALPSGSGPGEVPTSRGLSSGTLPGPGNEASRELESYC
Description: Agonist activity at human GIP receptor expressed in HEK293 cells assessed as increase in cAMP level after 5 hrs by CRE driven luciferase reporter gene assay.

Assay [3] addresses T1, Glucagon receptor. Description: Agonist activity at human GCG receptor expressed in HEK293 cells assessed as increase in cAMP level after 5 hrs by CRE driven luciferase reporter gene assay.
For assay [4], the target named is T3, Glucagon-like peptide 1 receptor (Homo sapiens, UniProt P43220). Description: Agonist activity at human GLP1 receptor expressed in HEK293 cells assessed as increase in cAMP level after 5 hrs by CRE driven luciferase reporter gene assay relative to GLP1. Details: concentration or dose not given beside the values.
T3 sequence (P43220 whole entry): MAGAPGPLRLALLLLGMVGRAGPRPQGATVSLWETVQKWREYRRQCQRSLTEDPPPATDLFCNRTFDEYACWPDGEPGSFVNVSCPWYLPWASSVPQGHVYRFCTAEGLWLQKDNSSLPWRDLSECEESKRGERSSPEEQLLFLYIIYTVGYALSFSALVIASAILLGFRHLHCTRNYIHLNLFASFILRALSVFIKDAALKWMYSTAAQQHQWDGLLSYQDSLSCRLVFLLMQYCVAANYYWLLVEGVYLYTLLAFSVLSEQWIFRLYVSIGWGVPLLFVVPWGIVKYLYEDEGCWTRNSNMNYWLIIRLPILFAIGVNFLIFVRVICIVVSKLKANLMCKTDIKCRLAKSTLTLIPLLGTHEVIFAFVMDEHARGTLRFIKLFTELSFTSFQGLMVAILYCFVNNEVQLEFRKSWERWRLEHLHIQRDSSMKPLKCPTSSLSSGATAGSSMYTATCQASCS
Assay [5] deals with T3, Glucagon-like peptide 1 receptor. Briefly: Agonist activity at human GLP1 receptor expressed in HEK293 cells assessed as increase in cAMP level after 5 hrs by CRE driven luciferase reporter gene assay.
For assay [6], the target named is T4, Gastric inhibitory polypeptide receptor (Homo sapiens) (UniProt P48546).
T4 sequence (whole entry): T2 sequence (P48546 whole entry)
Briefly: Agonist activity at human GIP receptor expressed in HEK293 cells assessed as increase in cAMP level after 5 hrs by CRE driven luciferase reporter gene assay relative to GIP. Details: concentration or dose not given beside the values.

Turning to `CC[C@H](C)[C@H](NC(=O)[C@H](Cc1ccccc1)NC(=O)[C@H](CCC(=O)O)NC(=O)[C@H](CCCCN)NC(=O)[C@H](C)NC(=O)[C@H](C)NC(=O)[C@H](CCC(N)=O)NC(=O)[C@H](CCC(=O)O)NC(=O)[C@H](CC(=O)O)NC(=O)[C@H](CC(C)C)NC(=O)[C@H](Cc1ccc(O)cc1)NC(=O)[C@H](CCCCN)NC(=O)[C@H](CO)NC(=O)[C@H](Cc1ccc(O)cc1)NC(=O)[C@H](CC(=O)O)NC(=O)[C@H](CO)NC(=O)[C@@H](NC(=O)[C@H](Cc1ccccc1)NC(=O)[C@@H](NC(=O)CNC(=O)[C@H](CCC(=O)O)NC(=O)[C@H](CO)NC(=O)[C@@H](N)Cc1cnc[nH]1)[C@@H](C)O)[C@@H](C)O)C(=O)N[C@@H](C)C(=O)N[C@@H](Cc1c[nH]c2ccccc12)C(=O)N[C@@H](CC(C)C)C(=O)N[C@@H](CCSC)C(=O)N[C@@H](CC(N)=O)C(=O)N[C@H](C(N)=O)[C@@H](C)O` (H-HSEGTFTSDYSKYLDEQAAKEFIAWLMNT-NH2), the figures for the Activity (at Glucagon receptor [1]; in assay [4]; in assay [6]) were 1%, 93% and 2%, respectively. The EC50 in assay [2] came to 0.867 nM; at Glucagon receptor [3], 5.22 nM; in assay [5] it was 0.03 nM.

For `CC[C@H](C)[C@H](NC(=O)[C@H](Cc1ccccc1)NC(=O)[C@H](CCC(=O)O)NC(=O)[C@@H]1CCCCNC(=O)CC[C@H](NC(=O)[C@H](CC(=O)O)NC(=O)[C@H](CC(C)C)NC(=O)[C@H](Cc2ccc(O)cc2)NC(=O)[C@H](CCCCN)NC(=O)[C@H](CO)NC(=O)[C@H](Cc2ccc(O)cc2)NC(=O)[C@H](CC(=O)O)NC(=O)[C@H](CO)NC(=O)[C@@H](NC(=O)[C@H](Cc2ccccc2)NC(=O)[C@@H](NC(=O)CNC(=O)[C@H](CCC(N)=O)NC(=O)[C@H](CO)NC(=O)[C@@H](N)Cc2cnc[nH]2)[C@@H](C)O)[C@@H](C)O)C(=O)N[C@@H](CCC(N)=O)C(=O)N[C@@H](C)C(=O)N[C@@H](C)C(=O)N1)C(=O)N[C@@H](C)C(=O)N[C@@H](Cc1c[nH]c2ccccc12)C(=O)N[C@@H](CC(C)C)C(=O)N[C@@H](CCSC)C(=O)N[C@@H](CC(N)=O)C(=O)N[C@H](C(N)=O)[C@@H](C)O` (H-HSQGTFTSDYSKYLDEQAAKEFIAWLMNT-NH2; lactam 16-20), the Activity on Glucagon receptor [1] was determined as 104%; in assay [4], 126%; in assay [6], 0%. The EC50 is 6.26 nM in assay [2], 0.03 nM at Glucagon receptor [3] and 0.02 nM in assay [5].

Regarding `CCCCCCCCCCCCCCCC(=O)N[C@@H](CCC(=O)NCCCC[C@H](NC(=O)[C@H](CC(=O)O)NC(=O)[C@H](CO)NC(=O)[C@@H](NC(=O)[C@H](Cc1ccccc1)NC(=O)[C@@H](NC(=O)CNC(=O)[C@H](CCC(N)=O)NC(=O)[C@@H](CO)NC(=O)[C@@H](N)Cc1cnc[nH]1)[C@@H](C)O)[C@@H](C)O)C(=O)N[C@@H](CO)C(=O)N[C@@H](CCCCN)C(=O)N[C@@H](Cc1ccc(O)cc1)C(=O)N[C@@H](CC(C)C)C(=O)N[C@@H](CC(=O)O)C(=O)N[C@@H](CCC(=O)O)C(=O)N[C@@H](CCCNC(=N)N)C(=O)N[C@@H](C)C(=O)N[C@@H](C)C(=O)N[C@@H](CCC(N)=O)C(=O)N[C@@H](CC(=O)O)C(=O)N[C@@H](Cc1ccccc1)C(=O)N[C@H](C(=O)N[C@@H](CCC(N)=O)C(=O)N[C@@H](Cc1c[nH]c2ccccc12)C(=O)N[C@@H](CC(C)C)C(=O)N[C@@H](CC(C)C)C(=O)N[C@@H](CC(=O)O)C(=O)N[C@H](C(N)=O)[C@@H](C)O)C(C)C)C(=O)O`, the Activity at Glucagon receptor [1] is 533%; in assay [4], 933%; in assay [6], 1%. Moreover, the EC50 in assay [2] was determined as 1.65 nM; at Glucagon receptor [3] it was 0.006 nM; in assay [5] it was 0.003 nM.

Consider `CCCCCCCCCCCCCCCC(=O)N[C@@H](CCC(=O)NCCCC[C@H](NC(=O)[C@H](CC(=O)O)NC(=O)[C@H](CO)NC(=O)[C@@H](NC(=O)[C@H](Cc1ccccc1)NC(=O)[C@@H](NC(=O)CNC(=O)[C@H](CCC(N)=O)NC(=O)[C@@H](CO)NC(=O)[C@@H](N)Cc1cnc[nH]1)[C@@H](C)O)[C@@H](C)O)C(=O)N[C@@H](CO)C(=O)N[C@@H](CCCCN)C(=O)N[C@@H](Cc1ccc(O)cc1)C(=O)N[C@@H](CC(C)C)C(=O)N[C@@H](CC(=O)O)C(=O)N[C@@H](CCC(=O)O)C(=O)N[C@@H](CCCNC(=N)N)C(=O)N[C@@H](C)C(=O)N[C@@H](C)C(=O)N[C@@H](CCC(N)=O)C(=O)N[C@@H](CC(=O)O)C(=O)N[C@@H](Cc1ccccc1)C(=O)N[C@H](C(=O)N[C@@H](CCC(N)=O)C(=O)N[C@@H](Cc1c[nH]c2ccccc12)C(=O)N[C@@H](CC(C)C)C(=O)N[C@@H](CC(C)C)C(=O)N[C@@H](CC(=O)O)C(=O)NCC(=O)N[C@@H](CCCNC(=N)N)C(=O)NCC(N)=O)C(C)C)C(=O)O`, for which the Activity on Glucagon receptor [1] came to 800%; in assay [4] it was 1400%; in assay [6] it was 2%.

`CCCCCCCCCCCCCCCC(=O)N[C@@H](CCC(=O)NCCCC[C@H](NC(=O)[C@H](CC(=O)O)NC(=O)[C@H](CO)NC(=O)[C@@H](NC(=O)[C@H](Cc1ccccc1)NC(=O)[C@@H](NC(=O)CNC(=O)[C@H](CCC(N)=O)NC(=O)[C@@H](C)NC(=O)[C@@H](N)Cc1cnc[nH]1)[C@@H](C)O)[C@@H](C)O)C(=O)N[C@@H](CO)C(=O)N[C@@H](CCCCN)C(=O)N[C@@H](Cc1ccc(O)cc1)C(=O)N[C@@H](CC(C)C)C(=O)N[C@@H](CC(=O)O)C(=O)N[C@@H](CCC(=O)O)C(=O)N[C@@H](CCCNC(=N)N)C(=O)N[C@@H](C)C(=O)N[C@@H](C)C(=O)N[C@@H](CCC(N)=O)C(=O)N[C@@H](CC(=O)O)C(=O)N[C@@H](Cc1ccccc1)C(=O)N[C@H](C(=O)N[C@@H](CCC(N)=O)C(=O)N[C@@H](Cc1c[nH]c2ccccc12)C(=O)N[C@@H](CC(C)C)C(=O)N[C@@H](CC(C)C)C(=O)N[C@@H](CC(=O)O)C(=O)N[C@H](C(N)=O)[C@@H](C)O)C(C)C)C(=O)O`: the Activity came out at 356% at Glucagon receptor [1], 70% in assay [4] and 1% in assay [6]. Besides, the EC50 at Glucagon receptor [3] came to 0.009 nM; in assay [5] it was 0.04 nM.

For `CCCCCCCCCCCCCCCC(=O)N[C@@H](CCC(=O)NCCCC[C@H](NC(=O)[C@H](CC(=O)O)NC(=O)[C@H](CO)NC(=O)[C@@H](NC(=O)[C@H](Cc1ccccc1)NC(=O)[C@@H](NC(=O)CNC(=O)[C@H](CCC(N)=O)NC(=O)C(C)(C)NC(=O)[C@@H](N)Cc1cnc[nH]1)[C@@H](C)O)[C@@H](C)O)C(=O)N[C@@H](CO)C(=O)N[C@@H](CCCCN)C(=O)N[C@@H](Cc1ccc(O)cc1)C(=O)N[C@@H](CC(C)C)C(=O)N[C@@H](CC(=O)O)C(=O)N[C@@H](CCC(=O)O)C(=O)N[C@@H](CCCNC(=N)N)C(=O)N[C@@H](C)C(=O)N[C@@H](C)C(=O)N[C@@H](CCC(N)=O)C(=O)N[C@@H](CC(=O)O)C(=O)N[C@@H](Cc1ccccc1)C(=O)N[C@H](C(=O)N[C@@H](CCC(N)=O)C(=O)N[C@@H](Cc1c[nH]c2ccccc12)C(=O)N[C@@H](CC(C)C)C(=O)N[C@@H](CC(C)C)C(=O)N[C@@H](CC(=O)O)C(=O)NCC(=O)N[C@@H](CCCNC(=N)N)C(=O)NCC(N)=O)C(C)C)C(=O)O`, the Activity at Glucagon receptor [1] was 457%; in assay [4] it was 700%; in assay [6], 15%. Further, the EC50 in assay [2] was 0.133 nM; in assay [5] it was 0.004 nM.

One may read the EC50 as the concentration giving half of the maximal effect.

The values are drawn from ChEMBL document CHEMBL4219047, “Optimization of peptide-based polyagonists for treatment of diabetes and obesity” (Bioorg Med Chem, 2018).
